Data from patent US20210069176A1, “Treating Autoimmune Disorders with Chloroquine and/or Hydroxychloroquine” (Attillaps Holdings, priority 2018, published 2021).

Experiments:
Demodex mites = test: in vitro Demodex survival time assay
Procedure: FIG. 4 summarizes the activity of 10% chloroquine in water relative to a water control on activity against Demodex mites in an in vitro assay, with an LT50 of 31.6 hours for chloroquine compared to 44.8 hours for the water control, illustrating the inactivation effect of chloroquine on Demodex.
Example 4: In vitro efficacy and mite lifetimes: Relative efficacy of various formulations are evaluated with a demodex survival time experiments. FIG. 3 tabulates demodex survival time, expressed in terms of LT50 (time at which 50% of demodex mites are killed) and/or average minutes to death for various active agents.

[1] = dichlorvos 1%, one patient; cited from earlier work

Structure (SMILES)	LT50 (time at which 50% of demodex mites are killed) (Demodex mites; 10% chloroquine in water, water control 44.8 hours, FIG. 4) [h]	activity against Demodex mites (Demodex mites; in vitro assay, FIG. 3)	remission of Papulopostular Rosacea (PPR) [1]
CCN(CC)CCCC(C)Nc1ccnc2cc(Cl)ccc12 (stereo not drawn) [chloroquine]	31.6	has activity against Demodex mites	
COP(=O)(OC)OC=C(Cl)Cl [dichlorvos]			complete and continued remission
